{"source": "patent US20250000907A1", "about": "“ENGINEERED IMMUNE CELLS WITH REDUCED SIRT6 EXPRESSION” (H. LEE MOFFITT CANCER CENTER AND RESEARCH INSTITUTE, INC., priority 2021, published 2025)", "key": {"[1]": {"system": "CD3+ TILs isolated from B16F10 tumor nodules", "test": "Seahorse ECAR of TILs isolated from s.c. B16F10 melanoma tumors", "format": "cell-based, mouse", "details": "TILs from s.c. B16F10 tumors in C57BL/6 mice, OSS vs. DMSO, FIG. 6F", "method": "Anesthetized mice were injected subcutaneously (s.c.) into the hind limb with 2.5×10^5 B16F10 tumor cells in 200 μl of sterile PBS. Tumors were collected after 2 weeks and TILs were isolated for further analysis.\nLymphocytes from subcutaneous tumors were isolated by dicing the tissues followed by enzymatic digestion in PBS containing collagenase type 4 (2 mg/ml, Worthington Biochemical) and DNase I (0.25 mg/ml, Sigma-Aldrich) for 45 min with occasional shaking at 37° C. Cell suspensions were then twice filtered through 100 μm and 40 μm cell strainers (Thermo Fisher Scientific) to obtain single-cell suspension followed by a PBS wash and red blood cell lysis using RBC Lysis Buffer (Biolegend). […]\n(§1) Extracellular acidification rate (ECAR) and oxygen consumption rate (OCR) were measured using the Seahorse XF analyzer (Agilent technologies). […] For GST, ECAR and OCR were measured under basal conditions and in response to 10 mM glucose, 1 μM oligomycin and 50 mM 2-DG successively to calculate basal glycolytic rate, glycolytic capacity (in response to oligomycin), and glycolytic reserve (glycolytic capacity-basal rate). […] Results were normalized to total protein quantified using Pierce™ BCA Protein Assay Kit (Thermo Fisher Scientific)."}, "activated CD3+ T cells": {"system": "activated CD3+ T cells", "test": "Western blot analysis of activated T cells", "format": "cell-based, mouse", "method": "Whole cell lysates were prepared using lysis buffer (Pierce RIPA buffer, Thermo Fisher Scientific) supplemented with Complete™ protease inhibitor cocktail and PhosSTOP phosphatase inhibitor cocktail (Roche Applied Science).\nCell lysates (20 μg) or IP samples were loaded onto 10% SDS-PAGE and separated by electrophoresis followed by semi-dry transfer into polyvinylidene fluoride membranes (Immun-Blot® PVDF membrane, Bio-Rad) using Trans-Blot Turbo transfer system (Bio-Rad). After transfer, the membranes were blocked at room temperature with Tris-buffered saline (TBS) containing 0.05% Tween-20 (TBST) and 5% (w/v) non-fat dry milk for 1 hour and then incubated overnight at 4° C. with a specific primary antibody (indicated below). The membranes were washed three times with TBST and then incubated for 1 hour with horseradish peroxidase (HRP)-conjugated goat […] IgG H&L (Abcam, #ab97051, 1:3,000) for regular western blotting analysis, or HRP-conjugated mouse anti-rabbit IgG light-chain specific (Cell Signaling, #93702, 1:1,000) for IP samples. After washing 3 times with TBST, bound antibodies were detected by chemiluminescence using the Pierce™ ECL Western Blotting Substrate and the Super Signal West Femto Maximum Sensitivity Substrate kits (Thermo Fisher Scientific). Image acquisition was performed with the Amersham imager 600 system (GE Healthcare Bio-Sciences).\nImmunoblotting was performed using primary antibodies against: Sirt6, H3K9, acetylated-H3K9 and c-Myc (#9402, 1:1,000) from Cell signaling, LDH (#ab52488, 1:5,000), PFKP (#ab204131, 1:2,000), HK1 (#ab150423, 1:1,000), HIF-1α and beta-Actin from Abcam"}, "[2]": {"system": "human TILs from NSCLC patient tumor samples", "test": "Seahorse ECAR of human NSCLC TILs", "format": "cell-based", "details": "TILs from 6 NSCLC patients, OSS vs. DMSO", "method": "Human tumor infiltrating lymphocytes (hTILs) samples isolated from tumor biopsies of patients with non-small cell lung cancer (NSCLC) were generously provided by Moffitt Cancer Center. All human samples remained totally de-identified and no Institutional Review Board (IRB) approval was needed.\n(§2) hTILs were maintained in RPMI 1640 Medium, supplemented with 10% human AB serum (Valley Biomedical, Inc.), 1 mM Hepes (Sigma-Aldrich), 1% P/S (Thomas Scientific Inc), 50 μg/ml Gentamicin (ThermoFisher Scientific), 50μM β-mercaptoethanol (ThermoFisher Scientific) and 6000 U/ml of recombinant human IL-2 (Peprotech). For metabolic and functional assays, hTILs were cultured in completed RPMI medium, IL-2 free, on plate-bound anti-CD3 antibody (5 μg/ml; OKT-3, BioXCell) in the presence of vehicle or OSS (Selleck Chemicals) at the indicated concentrations.\nas §1"}, "[3]": {"system": "Pmel T cells stimulated with gp100", "test": "IFN-γ ELISPOT assay of Pmel T cells", "format": "cell-based, mouse", "details": "activated Pmel T cells, OSS vs. DMSO, FIG. 7C", "method": "The number of IFN-γ producing cells was evaluated in an ELISPOT assay. Briefly, mouse TILs were plated at 1×10^5 cells and co-cultured with 1×10^3 irradiated B16F10 tumor cells (50 Gray) in the presence of the indicated concentrations of OSS, in a 96-well nitrocellulose flat-bottomed plate (ELISPOT plate, Millipore) pre-coated with an anti-mouse IFN-γ antibody (AN-18, Mabtech, Inc.) and incubated for 48 hr at 37° C. For Pmel T cells, splenocytes were first stimulated with gp100 (1 μg/ml, Anaspec) for 48 hr in the presence of the indicated concentrations of OSS and then transferred to the ELISPOT plate pre-coated with an anti-mouse IFN-γ antibody (AN-18, Mabtech, Inc.) for an additional 48 hr. For human CD3+ T cells and TILs, cells were first stimulated with plate-coated anti-CD3 for 48 hr in the presence of vehicle or OSS at the indicated concentration and then transferred to the ELISPOT plate pre-coated with an anti-human IFN-γ antibody (1-DIK, Mabtech, Inc.). PMA (10 ng/ml, Sigma-Aldrich) was used as positive assay control. After washing steps and successive biotinylated anti-IFN-γ antibody (R4-6A2, Mabtech, Inc.) and Streptavidin-HRP (BD Bioscience) labeling, spots were detected using AEC Substrate Kit (BD Biosciences) and counted using an AID ELISPOT Reader System (Autoimmun Diagnostika GmbH)."}, "[4]": {"system": "TILs isolated from B16F10 tumors", "test": "IFN-γ ELISPOT assay of B16F10 TILs re-challenged with B16F10 cells", "format": "cell-based, mouse", "details": "B16F10 TILs re-challenged with B16F10 cells ex vivo, FIG. 7G", "method": "Lymphocytes from subcutaneous tumors were isolated by dicing the tissues followed by enzymatic digestion in PBS containing collagenase type 4 (2 mg/ml, Worthington Biochemical) and DNase I (0.25 mg/ml, Sigma-Aldrich) for 45 min with occasional shaking at 37° C. Cell suspensions were then twice filtered through 100 μm and 40 μm cell strainers (Thermo Fisher Scientific) to obtain single-cell suspension followed by a PBS wash and red blood cell lysis using RBC Lysis Buffer (Biolegend). TILs were finally isolated by density gradient centrifugation using Percoll (GE Healthcare) and were further purified using […] MicroBeads Kit™ (Miltenyi Biotec) according to the manufacturer's instructions. T cell purity was greater than 90% (data not shown). Fresh TILs were used directly for phenotypic and metabolic analyses or were cultured in complete RPMI medium for functional assays.\nThe number of IFN-γ producing cells was evaluated in an ELISPOT assay. […] After washing steps and successive biotinylated anti-IFN-γ antibody (R4-6A2, Mabtech, Inc.) and Streptavidin-HRP (BD Bioscience) labeling, spots were detected using AEC Substrate Kit (BD Biosciences) and counted using an AID ELISPOT Reader System (Autoimmun Diagnostika GmbH)."}, "[5]": {"system": "Pmel T cells stimulated with gp100", "test": "Intracellular granzyme B staining by flow cytometry", "format": "cell-based, mouse", "details": "activated Pmel T cells, OSS vs. DMSO, FIG. 7B", "method": "For intracellular cytokine staining, cells were firstly stimulated with phorbol 12-myristate 13-acetate (PMA, 10 ng/ml, Sigma) and ionomycin (1 μM/ml, Sigma) for 1 hour followed by GolgiPlug™ treatment (1% c, BD Biosciences) for 6 h and then stained with IFN-γ (BV711, BD Biosciences) and Granzyme B (Alexa647, Biolegend). Cells were acquired on a BD FACSymphony™ A5 and LSR II (Becton Dickinson), and data were analyzed with FlowJo software Version 10.0 software."}, "[6]": {"system": "human TILs from NSCLC patient tumor samples", "test": "IFN-γ ELISPOT assay of human NSCLC TILs", "format": "cell-based", "details": "TILs from 6 NSCLC patients, OSS vs. DMSO", "method": "as §2\nThe number of IFN-γ producing cells was evaluated in an ELISPOT assay. Briefly, mouse TILs were plated at 1×10^5 cells and co-cultured with 1×10^3 irradiated B16F10 tumor cells (50 Gray) in the presence of the indicated concentrations of OSS, in a 96-well nitrocellulose flat-bottomed plate (ELISPOT plate, Millipore) pre-coated with an anti-mouse IFN-γ antibody (AN-18, Mabtech, Inc.) and incubated for 48 hr at 37° C. […] After washing steps and successive biotinylated anti-IFN-γ antibody (R4-6A2, Mabtech, Inc.) and Streptavidin-HRP (BD Bioscience) labeling, spots were detected using AEC Substrate Kit (BD Biosciences) and counted using an AID ELISPOT Reader System (Autoimmun Diagnostika GmbH)."}, "OT-II and Pmel T cells": {"system": "OT-II and Pmel T cells", "test": "CFSE proliferation assay", "format": "cell-based, mouse", "details": "upon antigenic stimulation ex vivo, 3 days, FIG. 7A", "method": "Pmel cells and OT-II cells were first labelled with 5 μM of CellTrace™ carboxyl fluorescein succinimidyl ester (CFSE, Thermo Fisher Scientific) for 30 min at room temperature (RT) and then stimulated with gp100 or remained non-stimulated with and without Sirt6 inhibitor (OSS) for 3 days."}, "[7]": {"details": "activated CD3+ T cells, WB, FIG. 8J"}}}
{"smiles": "O=C(Nc1ccc(O)c(C(=O)O)c1)c1cccc(NC(=O)c2ccco2)c1", "note": "[OSS_128167]", "values": [{"measurement": "glycolytic activity of TILs (ECAR)", "setting": "[1]", "result": "restored"}, {"measurement": "Glut1 protein expression levels", "setting": "activated CD3+ T cells; [7]", "result": "upregulation"}, {"measurement": "HK1 protein expression levels", "setting": "activated CD3+ T cells; [7]", "result": "upregulation"}, {"measurement": "LDHA protein expression levels", "setting": "activated CD3+ T cells; [7]", "result": "upregulation"}, {"measurement": "PFKP protein expression levels", "setting": "activated CD3+ T cells; [7]", "result": "upregulation"}, {"measurement": "H3K9 acetylation levels", "setting": "activated CD3+ T cells; activated T cells, FIG. 8D", "result": "increased"}, {"measurement": "HIF-1α expression levels", "setting": "activated CD3+ T cells; activated T cells, FIG. 8D", "result": "no effect"}, {"measurement": "c-Myc expression levels", "setting": "activated CD3+ T cells; activated T cells, FIG. 8D", "result": "no effect"}, {"measurement": "aerobic glycolysis (basal glycolysis, glycolytic capacity)", "setting": "[2]", "result": "increased"}, {"measurement": "IFN-γ release", "setting": "[3]", "result": "increases"}, {"measurement": "IFN-γ release", "setting": "[4]", "result": "increase"}, {"measurement": "granzyme B expression", "setting": "[5]", "result": "increases"}, {"measurement": "IFN-γ production", "setting": "[6]", "result": "increased"}, {"measurement": "proliferation (CFSE dilution)", "setting": "OT-II and Pmel T cells", "result": "increased"}]}
